Laboratory results reported in the NIST ThermoML archive (doi:10.1016/j.jct.2010.07.001).
Numbers after ± are expanded uncertainties.

What was measured:
[1] = Molar enthalpy of transition or fusion; conditions: Crystal; DSC
[2] = Crystal; DTA

Structure (SMILES) | Molar enthalpy of transition or fusion [1] | Normal melting temperature [2]
CC(C)NCC(O)COc1ccc(CC(N)=O)cc1 (configuration not stated) [2-(4-(2-hydroxy-3-(isopropylamino)propoxy)phenyl)acetamide] | 8.75 ± 0.239 kcal/mol | 151.4 ± 2.1 °C
C[C@]12CC[C@@H]3c4ccc(O)cc4CC[C@H]3[C@@H]1CCC2=O [3-hydroxy-1,3,5(10)-estratrien-17-one] | 10.8 ± 0.287 kcal/mol | 254.0 ± 2.1 °C
CC(C)(C)NCC(O)COc1cccc2c1CC(O)C(O)C2 (configuration not stated) | 12.7 ± 0.335 kcal/mol | 130.2 ± 2.1 °C

The remaining lines, values ahead:

Molar enthalpy of transition or fusion [1] | Normal melting temperature [2] | Structure (SMILES)
11.3 ± 0.311 kcal/mol | 149.1 ± 2.1 °C | CS(=O)(=O)Nc1ccc([N+](=O)[O-])cc1Oc1ccccc1 [nimesulide]
17 ± 9.56 kcal/mol | 230.0 ± 2.1 °C | Cc1cccc(Nc2ccccc2C(=O)O)c1C [2-((2,3-dimethylphenyl)amino)benzoic acid]
8.96 ± 0.239 kcal/mol | 150 ± 2.1 °C | c1ccc(-c2ccc(C(c3ccccc3)n3ccnc3)cc2)cc1 (configuration not stated) [1-([1,1'-biphenyl]-4-yl(phenyl)methyl)-1H-imidazole]
